Test results from article PMC11903733 (Frontiers in Pharmacology, 2025).

How the values were obtained:
Assay in all cases: SelectScreen kinase profiling
Type in all cases: biochemical
[1] = biological target: EPHA1 (Homo sapiens, UniProt P21709)
Description: (§1) The kinase selectivity analysis of LTM-1 was performed utilizing the SelectScreen Kinase Profiling Service offered by Thermo Fisher Scientific. In a dose-response assay featuring a ten-point dilution series from 0.25 μM to 128 μM, the inhibitory effects of LTM-1 on substrate phosphorylation reactions catalyzed by a panel of kinases were assessed. Consequently, the half-maximal inhibitory concentrations (IC50 values) for each kinase were determined.

[2] = biological target: KIT (Homo sapiens, UniProt P10721)
Description: as §1

[3] = biological target: PLK2 (Homo sapiens, UniProt Q9NYY3)
Description: as §1

[4] = biological target: JAK3 (Homo sapiens, UniProt P52333)
Description: as §1

[5] = biological target: ERBB4 (Homo sapiens, UniProt Q15303)
Description: as §1

[6] = biological target: ROS1 (Homo sapiens, UniProt P08922)
Description: as §1

[7] = biological target: PDGFRA (Homo sapiens, UniProt P16234)
Description: as §1

[8] = biological target: CDK7 (Homo sapiens, UniProt P50613)
Description: as §1

[9] = biological target: NTRK1 (Homo sapiens, UniProt P04629)
Description: as §1

[10] = biological target: BLK (Homo sapiens, UniProt P51451)
Description: as §1

[11] = biological target: ERBB2 (Homo sapiens, UniProt P04626)
Description: as §1

[12] = biological target: MERTK (Homo sapiens, UniProt Q12866)
Description: as §1

[13] = biological target: CDK6 (Homo sapiens, UniProt Q00534)
Description: as §1

[14] = biological target: CDK12 (Homo sapiens, UniProt Q9NYV4)
Sequence of CDK12 (Q9NYV4 whole entry): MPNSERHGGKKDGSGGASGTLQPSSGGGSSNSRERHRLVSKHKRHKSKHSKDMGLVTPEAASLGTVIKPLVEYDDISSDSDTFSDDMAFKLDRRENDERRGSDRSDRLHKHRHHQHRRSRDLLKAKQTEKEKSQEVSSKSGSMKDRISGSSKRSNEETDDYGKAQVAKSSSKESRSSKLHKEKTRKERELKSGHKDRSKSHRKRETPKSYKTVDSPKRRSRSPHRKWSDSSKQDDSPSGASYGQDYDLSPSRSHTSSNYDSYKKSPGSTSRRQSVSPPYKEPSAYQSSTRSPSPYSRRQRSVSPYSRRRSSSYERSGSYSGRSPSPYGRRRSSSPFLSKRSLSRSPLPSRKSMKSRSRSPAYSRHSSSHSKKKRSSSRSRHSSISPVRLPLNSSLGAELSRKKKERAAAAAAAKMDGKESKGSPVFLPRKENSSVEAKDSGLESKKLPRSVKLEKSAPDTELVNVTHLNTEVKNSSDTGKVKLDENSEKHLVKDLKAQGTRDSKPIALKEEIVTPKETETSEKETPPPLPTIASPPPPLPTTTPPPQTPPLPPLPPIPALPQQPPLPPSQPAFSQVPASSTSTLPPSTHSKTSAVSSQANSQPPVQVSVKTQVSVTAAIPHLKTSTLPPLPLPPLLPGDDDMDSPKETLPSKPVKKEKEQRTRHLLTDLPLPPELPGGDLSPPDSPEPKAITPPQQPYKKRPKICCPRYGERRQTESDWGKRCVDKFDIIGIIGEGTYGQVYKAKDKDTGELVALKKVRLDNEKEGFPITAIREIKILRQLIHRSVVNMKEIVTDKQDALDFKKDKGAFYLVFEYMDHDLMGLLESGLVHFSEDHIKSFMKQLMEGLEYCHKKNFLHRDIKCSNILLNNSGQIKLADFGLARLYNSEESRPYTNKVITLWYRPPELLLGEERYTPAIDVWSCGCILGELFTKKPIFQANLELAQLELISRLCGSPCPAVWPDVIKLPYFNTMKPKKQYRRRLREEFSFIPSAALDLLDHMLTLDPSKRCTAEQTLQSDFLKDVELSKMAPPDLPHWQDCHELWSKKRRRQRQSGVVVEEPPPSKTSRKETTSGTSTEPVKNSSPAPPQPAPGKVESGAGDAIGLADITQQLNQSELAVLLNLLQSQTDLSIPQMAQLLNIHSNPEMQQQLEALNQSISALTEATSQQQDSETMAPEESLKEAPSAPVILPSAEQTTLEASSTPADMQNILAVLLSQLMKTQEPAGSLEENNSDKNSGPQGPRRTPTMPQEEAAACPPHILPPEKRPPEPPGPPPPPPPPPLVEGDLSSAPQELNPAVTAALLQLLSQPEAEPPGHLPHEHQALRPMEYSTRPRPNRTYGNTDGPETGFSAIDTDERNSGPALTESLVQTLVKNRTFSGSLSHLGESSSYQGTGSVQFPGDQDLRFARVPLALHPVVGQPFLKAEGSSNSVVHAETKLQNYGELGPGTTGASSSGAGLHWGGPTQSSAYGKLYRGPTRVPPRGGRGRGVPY
Sequence of CDK12 (O75909 whole entry partner): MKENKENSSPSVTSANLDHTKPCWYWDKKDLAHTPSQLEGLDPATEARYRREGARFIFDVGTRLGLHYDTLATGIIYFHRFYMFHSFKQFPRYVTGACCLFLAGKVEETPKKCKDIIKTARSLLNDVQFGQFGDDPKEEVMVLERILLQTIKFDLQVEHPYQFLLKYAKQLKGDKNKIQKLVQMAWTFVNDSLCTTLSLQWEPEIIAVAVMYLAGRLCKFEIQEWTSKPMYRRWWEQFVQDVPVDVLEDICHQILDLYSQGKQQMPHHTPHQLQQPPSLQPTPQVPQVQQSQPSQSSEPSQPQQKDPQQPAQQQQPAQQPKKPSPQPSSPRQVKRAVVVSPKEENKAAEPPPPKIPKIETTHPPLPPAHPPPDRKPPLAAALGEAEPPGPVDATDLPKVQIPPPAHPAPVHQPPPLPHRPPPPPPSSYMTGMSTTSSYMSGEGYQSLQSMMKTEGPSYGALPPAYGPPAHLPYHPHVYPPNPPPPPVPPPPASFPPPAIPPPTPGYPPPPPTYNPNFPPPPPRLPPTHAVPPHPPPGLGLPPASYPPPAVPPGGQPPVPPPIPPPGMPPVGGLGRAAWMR
Description: as §1

[15] = biological target: LYN (Homo sapiens, UniProt P07948)
Description: as §1

[16] = biological target: CDK4 (Homo sapiens, UniProt P11802)
Description: as §1

[17] = biological target: ZAK (Homo sapiens, UniProt Q9NYL2)
Description: as §1

[18] = biological target: ALK (Homo sapiens, UniProt Q9UM73)
Description: as §1

[19] = biological target: CDK3 (Homo sapiens, UniProt Q00526)
Description: as §1

[20] = biological target: FGFR3 (Homo sapiens, UniProt P22607)
Description: as §1

[21] = biological target: CDK5 (Homo sapiens, UniProt Q00535)
Description: as §1

[22] = biological target: ITK (Homo sapiens, UniProt Q08881)
Description: as §1

[23] = biological target: EPHB2 (Homo sapiens, UniProt P29323)
Description: as §1

[24] = biological target: FGR (Homo sapiens, UniProt P09769)
Sequence of FGR (P09769 whole entry): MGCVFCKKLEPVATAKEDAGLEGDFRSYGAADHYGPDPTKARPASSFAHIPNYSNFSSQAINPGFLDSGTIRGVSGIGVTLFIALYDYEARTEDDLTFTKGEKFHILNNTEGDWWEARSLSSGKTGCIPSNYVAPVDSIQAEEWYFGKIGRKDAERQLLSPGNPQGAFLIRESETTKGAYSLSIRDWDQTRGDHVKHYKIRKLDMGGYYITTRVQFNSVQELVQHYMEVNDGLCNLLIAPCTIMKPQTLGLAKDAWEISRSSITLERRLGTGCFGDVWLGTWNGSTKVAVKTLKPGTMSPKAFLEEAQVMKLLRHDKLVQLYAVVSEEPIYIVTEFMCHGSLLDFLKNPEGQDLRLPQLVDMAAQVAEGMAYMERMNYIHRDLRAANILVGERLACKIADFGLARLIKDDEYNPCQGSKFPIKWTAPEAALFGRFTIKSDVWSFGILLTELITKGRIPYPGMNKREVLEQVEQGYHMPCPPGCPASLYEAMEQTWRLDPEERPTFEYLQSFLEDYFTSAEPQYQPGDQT
Description: as §1

[25] = biological target: CDK13 (Homo sapiens, UniProt Q14004)
Description: as §1

[26] = biological target: KDR (Homo sapiens, UniProt P35968)
Description: as §1

[27] = biological target: CDK8 (Homo sapiens, UniProt P49336)
Description: as §1

[28] = biological target: ABL2 (Homo sapiens, UniProt P42684)
Description: as §1

[29] = biological target: FYN (Homo sapiens, UniProt P06241)
Description: as §1

[30] = biological target: FRK (Homo sapiens, UniProt P42685)
Description: as §1

[31] = biological target: EPHB1 (Homo sapiens, UniProt P54762)
Description: as §1

[32] = biological target: FGFR1 (Homo sapiens, UniProt P11362)
Description: as §1

[33] = biological target: CSF1R (Homo sapiens, UniProt P07333)
Description: as §1

[34] = biological target: EPHB4 (Homo sapiens, UniProt P54760)
Description: as §1

[35] = biological target: DDR1 (Homo sapiens, UniProt Q08345)
Description: as §1

[36] = biological target: EPHB3 (Homo sapiens, UniProt P54753)
Description: as §1

[37] = biological target: CDK2 (Homo sapiens, UniProt P24941)
Description: as §1

[38] = biological target: PIM1 (Homo sapiens, UniProt P11309)
Sequence of PIM1 (P11309 whole entry): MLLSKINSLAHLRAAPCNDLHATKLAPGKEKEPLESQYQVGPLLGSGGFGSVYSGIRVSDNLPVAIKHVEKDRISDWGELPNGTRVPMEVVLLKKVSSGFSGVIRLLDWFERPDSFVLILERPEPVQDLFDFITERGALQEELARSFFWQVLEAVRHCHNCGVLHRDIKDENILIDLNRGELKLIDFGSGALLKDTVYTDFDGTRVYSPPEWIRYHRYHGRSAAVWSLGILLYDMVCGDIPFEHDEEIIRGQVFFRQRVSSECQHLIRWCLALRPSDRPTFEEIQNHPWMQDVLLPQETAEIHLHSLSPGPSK
Description: as §1

[39] = biological target: BMX (Homo sapiens, UniProt P51813)
Description: as §1

[40] = biological target: RAF1 (Homo sapiens, UniProt P04049, Y340D/Y341D)
Sequence of RAF1 (P04049 306-648 Y340D/Y341D limits assumed): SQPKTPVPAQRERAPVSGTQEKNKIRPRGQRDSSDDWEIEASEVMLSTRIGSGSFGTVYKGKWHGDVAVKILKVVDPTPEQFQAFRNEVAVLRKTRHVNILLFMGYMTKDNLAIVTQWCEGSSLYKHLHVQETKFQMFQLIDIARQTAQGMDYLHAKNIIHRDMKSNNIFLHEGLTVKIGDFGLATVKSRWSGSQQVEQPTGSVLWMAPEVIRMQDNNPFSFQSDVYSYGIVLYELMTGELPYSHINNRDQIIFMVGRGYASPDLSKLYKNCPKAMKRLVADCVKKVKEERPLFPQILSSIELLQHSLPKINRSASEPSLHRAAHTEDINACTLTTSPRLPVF
Description: as §1

[41] = biological target: AXL (Homo sapiens, UniProt P30530)
Sequence of AXL (P30530 26-894): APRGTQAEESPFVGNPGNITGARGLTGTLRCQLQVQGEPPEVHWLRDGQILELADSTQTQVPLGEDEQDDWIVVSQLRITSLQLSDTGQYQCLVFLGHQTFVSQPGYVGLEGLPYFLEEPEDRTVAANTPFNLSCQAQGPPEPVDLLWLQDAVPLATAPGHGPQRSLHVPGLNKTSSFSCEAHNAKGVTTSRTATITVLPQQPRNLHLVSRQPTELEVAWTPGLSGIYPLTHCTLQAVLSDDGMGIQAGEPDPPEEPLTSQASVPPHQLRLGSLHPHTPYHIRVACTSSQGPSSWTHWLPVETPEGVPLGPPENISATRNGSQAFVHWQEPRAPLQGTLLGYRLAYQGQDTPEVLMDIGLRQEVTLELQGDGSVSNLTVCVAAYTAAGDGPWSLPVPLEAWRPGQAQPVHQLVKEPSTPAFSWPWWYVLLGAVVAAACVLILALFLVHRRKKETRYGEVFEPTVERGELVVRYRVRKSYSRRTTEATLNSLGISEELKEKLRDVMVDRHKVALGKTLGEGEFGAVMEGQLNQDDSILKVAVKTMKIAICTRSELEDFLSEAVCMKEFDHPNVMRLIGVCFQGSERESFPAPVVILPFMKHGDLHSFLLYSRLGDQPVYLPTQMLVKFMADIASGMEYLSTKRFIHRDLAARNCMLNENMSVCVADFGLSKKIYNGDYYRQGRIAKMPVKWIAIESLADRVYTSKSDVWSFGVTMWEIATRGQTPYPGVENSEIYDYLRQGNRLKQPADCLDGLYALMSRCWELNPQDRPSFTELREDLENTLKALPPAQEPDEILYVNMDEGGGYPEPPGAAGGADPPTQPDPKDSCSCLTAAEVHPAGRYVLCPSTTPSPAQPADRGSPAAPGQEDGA
Description: as §1

[42] = biological target: MUSK (Homo sapiens, UniProt O15146)
Description: as §1

[43] = biological target: JAK2 (Homo sapiens, UniProt O60674)
Description: as §1

Sequence of EPHA1 (P21709 26-976): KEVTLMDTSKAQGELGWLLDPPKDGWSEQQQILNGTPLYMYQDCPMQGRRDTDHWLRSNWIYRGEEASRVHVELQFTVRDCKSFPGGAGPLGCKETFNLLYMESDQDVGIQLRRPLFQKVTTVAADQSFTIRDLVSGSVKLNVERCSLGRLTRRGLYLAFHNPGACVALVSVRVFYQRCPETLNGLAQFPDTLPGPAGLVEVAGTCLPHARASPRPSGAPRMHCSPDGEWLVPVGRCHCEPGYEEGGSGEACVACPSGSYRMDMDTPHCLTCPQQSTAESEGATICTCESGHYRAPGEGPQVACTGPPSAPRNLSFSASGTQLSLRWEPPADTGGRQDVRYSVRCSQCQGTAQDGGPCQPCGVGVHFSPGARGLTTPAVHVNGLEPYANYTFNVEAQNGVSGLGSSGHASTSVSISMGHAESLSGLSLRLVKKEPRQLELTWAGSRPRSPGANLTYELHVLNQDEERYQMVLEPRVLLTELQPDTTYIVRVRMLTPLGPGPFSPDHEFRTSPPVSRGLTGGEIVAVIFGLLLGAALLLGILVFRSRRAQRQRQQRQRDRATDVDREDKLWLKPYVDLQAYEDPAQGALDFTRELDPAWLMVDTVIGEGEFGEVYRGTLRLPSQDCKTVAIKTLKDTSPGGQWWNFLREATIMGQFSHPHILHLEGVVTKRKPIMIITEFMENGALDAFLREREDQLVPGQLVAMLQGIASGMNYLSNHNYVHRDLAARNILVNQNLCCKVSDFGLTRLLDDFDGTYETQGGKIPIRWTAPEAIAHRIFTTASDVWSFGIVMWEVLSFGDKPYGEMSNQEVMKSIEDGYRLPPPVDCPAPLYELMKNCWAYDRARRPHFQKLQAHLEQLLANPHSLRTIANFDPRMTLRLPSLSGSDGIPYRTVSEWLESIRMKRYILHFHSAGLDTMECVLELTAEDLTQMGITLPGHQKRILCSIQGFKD

IC50 [1]: > 10 µM
IC50 [2]: > 10 µM
IC50 [3]: > 10 µM
IC50 [4]: > 10 µM
IC50 [5]: > 10 µM
IC50 [6]: > 10 µM
IC50 [7]: > 10 µM
IC50 [8]: > 10 µM
IC50 [9]: > 10 µM
IC50 [10]: > 10 µM
IC50 [11]: > 10 µM
IC50 [12]: > 10 µM
IC50 [13]: > 10 µM
IC50 [14]: > 10 µM
IC50 [15]: > 10 µM
IC50 [16]: > 10 µM
IC50 [17]: > 10 µM
IC50 [18]: > 10 µM
IC50 [19]: > 10 µM
IC50 [20]: > 10 µM
IC50 [21]: > 10 µM
IC50 [22]: > 10 µM
IC50 [23]: > 10 µM
IC50 [24]: > 10 µM
IC50 [25]: > 10 µM
IC50 [26]: > 10 µM
IC50 [27]: > 10 µM
IC50 [28]: > 10 µM
IC50 [29]: > 10 µM
IC50 [30]: > 10 µM
IC50 [31]: > 10 µM
IC50 [32]: > 10 µM
IC50 [33]: > 10 µM
IC50 [34]: > 10 µM
IC50 [35]: > 10 µM
IC50 [36]: > 10 µM
IC50 [37]: > 10 µM
IC50 [38]: > 10 µM
IC50 [39]: > 10 µM
IC50 [40]: > 10 µM
IC50 [41]: > 10 µM
IC50 [42]: > 10 µM
IC50 [43]: > 10 µM
Compound: O=S(=O)(c1ccc(C(O)CO)c(C(F)(F)F)c1)N1CCc2cc(C3CC3NCC3CCNCC3)ccc21 (stereo not shown) [LTM-1]
